Results published in US8546380B2, “Aminodihydrothiazine derivatives” (Shionogi & Co., Ltd., priority 2005, dated 2013).
Where two headings read alike, the source gives them in different places.

Molecular target: recombinant human BACE-1 protein (Homo sapiens (Human), UniProt P56817)
Test: Measurement of Inhibition of β-Secretase Activity
Format: biochemical
Conditions: 3 h at 30° C., pH5.0, read-out: IC50 value
Description: Zero point five μL of the test compounds (dissolved in N,N′-dimethylsulfoxide) were incubated with 48.5 μL of the fluorescence-quenched peptide substrate solution (Biotin-XSEVNLDAEFRHDSGC-Eu:X=ε-amino-n-capronic acid, Eu=Europium cryptate) and 1 μL of recombinant human BACE-1 protein (R&D systems) for 3 h at 30° C. in the 96 well half-area plate (black color plate, Costar). The substrate peptide was synthesized by reacting with Biotin-XSEVNLDAEFRHDSGC (Peptide Institute) and Cryptate TBPCOOH mono SMP (CIS bio international). […] The enzymatic reaction was performed in sodium acetate buffer (50 mM sodium acetate (pH5.0), 0.008% Triton X-100). After the reaction, a 50 μL of 8.0 μg/mL Streptavidin-XL665 (CIS bio international) dissolved in phosphate buffer (150 mM K2HPO4—KH2PO4 (pH 7.0), 0.008% Triton X-100, 0.8 M KF) was add to each well and incubated for 1 h at 30° C.

[1] = fluorescence-quenched peptide substrate 18 nM, BACE-1 7.4 nM
[2] = recombinant human BACE-1 protein

recombinant human BACE-1 protein, sequence (P56817 46-501): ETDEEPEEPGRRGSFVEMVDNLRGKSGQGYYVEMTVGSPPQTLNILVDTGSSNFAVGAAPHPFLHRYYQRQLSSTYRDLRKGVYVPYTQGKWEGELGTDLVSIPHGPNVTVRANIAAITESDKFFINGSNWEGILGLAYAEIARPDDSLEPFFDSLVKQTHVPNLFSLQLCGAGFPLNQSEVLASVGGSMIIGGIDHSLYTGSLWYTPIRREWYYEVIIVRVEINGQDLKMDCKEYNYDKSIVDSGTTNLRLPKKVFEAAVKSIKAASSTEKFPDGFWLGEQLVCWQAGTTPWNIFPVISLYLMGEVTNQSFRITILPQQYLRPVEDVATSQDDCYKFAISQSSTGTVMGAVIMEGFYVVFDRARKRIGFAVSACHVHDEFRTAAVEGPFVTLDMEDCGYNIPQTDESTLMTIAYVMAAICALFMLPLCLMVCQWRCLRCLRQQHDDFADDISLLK

Row | IC50 [1] | Compound | IC50 [2]
1 | < 100 µM | CC1(c2cccc(C(=O)Nc3nc4ccccc4s3)c2)CCSC(N)=N1 (centres unmarked) [Compound 708] | 
2 | < 100 µM | Cc1oc(-c2ccc(Cl)cc2)cc1C(=O)Nc1cc(C2(C)CCSC(N)=N2)ccc1F (centres unmarked) [Compound 397] | 
3 | < 100 µM | CCCCCOc1ccc(NC(=O)COc2cccc(C3(C)CCSC(N)=N3)c2)cc1 (centres unmarked) [Compound 211] | 
4 | < 100 µM | COc1ccc(NC(=O)COc2cccc(C3(C)CCSC(N)=N3)c2)cc1F (centres unmarked) [Compound 322] | 
5 | < 100 µM | CSc1ncccc1C(=O)Nc1cccc(C2(C)CCSC(N)=N2)c1 (centres unmarked) [Compound 847] | 
6 | < 100 µM | CC(C)Oc1ccc(C(=O)Nc2cccc(C3(C)CCSC(N)=N3)c2)nc1 (centres unmarked) [Compound 299] | 
7 | < 100 µM | COc1ccc(C(=O)Nc2cccc(C3(C)CCSC(N)=N3)c2)cc1[N+](=O)[O-] (centres unmarked) [Compound 154] | 
8 | < 100 µM | CC1(c2cccc(NC(=O)c3cccc(Cl)c3)c2)CCSC(N)=N1 (centres unmarked) [Compound 568] | 
9 | < 100 µM | CC1(c2cccc(OC(F)(F)C(=O)Nc3ccccc3)c2)CCSC(N)=N1 (centres unmarked) [Compound 1257] | 
10 | < 100 µM | CC1(c2cccc(NC(=O)c3ccc([N+](=O)[O-])cn3)c2)CCSC(N)=N1 (centres unmarked) [Compound 730] | 
11 | < 100 µM | Cc1ccc(C(=O)Nc2cccc(C3(C)CCSC(N)=N3)c2)nn1 (centres unmarked) [Compound 618] | 
12 | < 100 µM | CC1(c2cccc(NC(=O)c3ccc4nonc4c3)c2)CCSC(N)=N1 (centres unmarked) [Compound 652] | 
13 | < 100 µM | CC1(c2cccc(C(=O)Nc3ccc(Cl)cn3)c2)CCSC(N)=N1 (centres unmarked) [Compound 542] | 
14 | < 100 µM | CC1(c2cccc(NC(=O)CCNC(=O)c3ccc(Cl)cn3)c2)CCSC(N)=N1 (centres unmarked) [Compound 134] | 
15 | < 100 µM | CC1(c2cc(NC(=S)c3ccc(Cl)cc3)cc(S(C)(=O)=O)c2)CCSC(N)=N1 (centres unmarked) [Compound 30] | 
16 | < 100 µM | CC1(c2cccc(NC(=O)C(=O)Nc3ccccc3)c2)CCSC(N)=N1 (centres unmarked) [Compound 1147] | 
17 | < 100 µM | CC1(c2cccc(NC(=O)CCNC(=O)c3ccc(F)cc3)c2)CCSC(N)=N1 (centres unmarked) [Compound 216] | 
18 | < 100 µM | CC1(c2cccc(OCC(=O)Nc3ccc4cnccc4c3)c2)CCSC(N)=N1 (centres unmarked) [Compound 454] | 
19 |  | CC1(c2cc(Cl)cc(NC(=O)c3cc4ccccc4s3)c2)CCSC(N)=N1 (centres unmarked) [Compound 832] | 0.222 µM
20 |  | CC1(c2cc(Cl)cc(NC(=O)c3ccco3)c2)CCSC(N)=N1 (centres unmarked) [Compound 822] | 0.243 µM
21 | < 100 µM | CC1(c2cccc(OCC(=O)Nc3nccs3)c2)CCSC(N)=N1 (centres unmarked) [Compound 824] | 
22 | < 100 µM | CC1(c2cccc(NC(=O)c3ccc(I)cc3)c2)CCSC(N)=N1 (centres unmarked) [Compound 201] | 
23 | < 100 µM | CC1(c2cccc(NC(=O)c3cc(Br)ccc3Cl)c2)CCSC(N)=N1 (centres unmarked) [Compound 986] | 
24 | < 100 µM | CC1(c2cccc(CCC(=O)Nc3ccc(Cl)cc3)c2)CCSC(N)=N1 (centres unmarked) [Compound 341] | 
25 |  | CC1(c2cccc(NC(=O)c3nc4ccccc4s3)c2)CCSC(N)=N1 (centres unmarked) [Compound 912] | 0.175 µM
26 | < 100 µM | CC1(c2cccc(C(=O)Nc3ccc(Cl)cn3)c2)CCSC(NC(=N)N)=N1 (centres unmarked) [Compound 189] | 
27 | < 100 µM | CC1(c2cccc(NC(=O)CCc3ccccc3)c2)CCSC(N)=N1 (centres unmarked) [Compound 808] | 

Row | IC50 [1] | Compound | IC50 [2]
28 |  | CC1(c2cc(Cl)cc(NC(=O)c3nc4ccccc4s3)c2)CCSC(N)=N1 (centres unmarked) [Compound 96] | 0.163 µM
29 | < 100 µM | CC1(c2cccc(NC(=O)c3cncs3)c2)CCSC(N)=N1 (centres unmarked) [Compound 791] | 
30 | < 100 µM | CC1(c2cccc(OCC(=O)Nc3cccc(Oc4ccccc4)c3)c2)CCSC(N)=N1 (centres unmarked) [Compound 1007] | 
31 | < 100 µM | CCOc1ccc(C(=O)Nc2cccc(C3(C)CCSC(N)=N3)c2)cc1 (centres unmarked) [Compound 480] | 
32 | < 100 µM | CC1(c2cccc(NC(=O)Cc3cc(Cl)ccn3)c2)CCSC(N)=N1 (centres unmarked) [Compound 113] | 
33 | < 100 µM | COc1ccc(NC(=O)/C=C/c2cccc(C3(C)CCSC(N)=N3)c2)cc1 (centres unmarked) [Compound 790] | 
34 | < 100 µM | CC1(c2ccc(F)c(C(=O)Nc3nccs3)c2)CCSC(N)=N1 (centres unmarked) [Compound 251] | 
35 | < 100 µM | CC1(c2cccc(NC(=O)c3ccc(NCc4cccnc4)cn3)c2)CCSC(N)=N1 (centres unmarked) [Compound 426] | 
36 | < 100 µM | CC1(c2cc(NC(=O)c3ccc[nH]3)ccc2F)CCSC(N)=N1 (centres unmarked) [Compound 115] | 
37 | < 100 µM | CC1(c2cccc(NC(=O)CCNC(=O)c3ccc(Cl)cc3)c2)CCSC(N)=N1 (centres unmarked) [Compound 613] | 
38 | < 100 µM | CC1(c2ccc(F)c(C(=O)NCc3ccccc3)c2)CCSC(N)=N1 (centres unmarked) [Compound 558] | 
39 | < 100 µM | CC1(c2cccc(NC(=O)C(Cl)Cl)c2)CCSC(N)=N1 (centres unmarked) [Compound 861] | 
40 | < 100 µM | CC1(c2cc(NC(=O)c3ccc(Cl)cn3)cc(S(C)(=O)=O)c2)CCSC(N)=N1 (centres unmarked) [Compound 1034] | 
41 | < 100 µM | CCN(C(=O)c1ccc(Cl)cn1)c1cccc(C2(C)CCSC(N)=N2)c1 (centres unmarked) [Compound 941] | 
42 | < 100 µM | CC1=NC(C)(c2cccc(CCC(=O)Nc3ccccc3)c2)CCS1 (centres unmarked) [Compound 732] | 
43 |  | CC1(c2cccc(OCC(=O)Nc3ccc(F)cc3)c2)CCSC(N)=N1 (centres unmarked) [Compound 1186] | 5.7 µM
44 | < 100 µM | CC1(c2cc(NC(=O)c3cc[nH]n3)ccc2F)CCSC(N)=N1 (centres unmarked) [Compound 893] | 
45 | < 100 µM | CC1(c2cccc(NCc3ccccc3)c2)CCSC(N)=N1 (centres unmarked) [Compound 357] | 
46 |  | CC1(c2cccc(C=Cc3ccc(Cl)cn3)c2)CCSC(N)=N1 (centres unmarked) [Compound 616] | 5.9 µM
47 | < 100 µM | CC1(c2cccc(NC(=O)c3cc(CCCO)on3)c2)CCSC(N)=N1 (centres unmarked) [Compound 788] | 
48 |  | COCc1cc(NC(=O)c2ccc(Cl)cc2)cc(C2(C)CCSC(N)=N2)c1 (centres unmarked) [Compound 395] | 1.5 µM
49 | < 100 µM | Cc1cc(C(=O)Nc2cccc(C3(C)CCSC(N)=N3)c2)ccc1Cl (centres unmarked) [Compound 172] | 
50 | < 100 µM | CC1(c2cc(NC(=O)c3ccc4cc[nH]c4c3)ccc2F)CCSC(N)=N1 (centres unmarked) [Compound 560] | 
51 | < 100 µM | CC1(c2cccc(NC(=O)c3ccc4occc4c3)c2)CCSC(N)=N1 (centres unmarked) [Compound 1009] | 
52 |  | COCc1cc(NC(=O)c2ccc(C(F)(F)F)cc2)cc(C2(C)CCSC(N)=N2)c1 (centres unmarked) [Compound 660] | 4.59 µM
53 | < 100 µM | CC(C)Nc1cnc(C(=O)Nc2cccc(C3(C)CCSC(N)=N3)c2)cn1 (centres unmarked) [Compound 157] | 
54 | < 100 µM | CC1(c2cccc(NC(=O)c3ccc(NC(=O)c4ccccn4)cn3)c2)CCSC(N)=N1 (centres unmarked) [Compound 319] | 

Row | IC50 [1] | Compound | IC50 [2]
55 | < 100 µM | COc1ccc(NC(=O)C(F)(F)Oc2cccc(C3(C)CCSC(N)=N3)c2)cc1 (centres unmarked) [Compound 944] | 
56 |  | COCc1cc(NC(=O)c2ccc(F)cc2)cc(C2(C)CCSC(N)=N2)c1 (centres unmarked) [Compound 896] | 8.5 µM
57 | < 100 µM | COc1ccc(C2(C)CCSC(N)=N2)cc1C(=O)Nc1ccc(Cl)cn1 (centres unmarked) [Compound 186] | 
58 | < 100 µM | CC1(c2cccc(NC(=O)c3ccc(F)c(Br)c3)c2)CCSC(N)=N1 (centres unmarked) [Compound 215] | 
59 | < 100 µM | CC1(c2cccc(OCCc3ccccc3)c2)CCSC(N)=N1 (centres unmarked) [Compound 833] | 
60 | < 100 µM | CC1(c2cccc(NC(=O)c3cc(CCO)on3)c2)CCSC(N)=N1 (centres unmarked) [Compound 1165] | 
61 | < 100 µM | CC1(c2cccc(NC(=O)c3ccc(NCc4ccccn4)cn3)c2)CCSC(N)=N1 (centres unmarked) [Compound 797] | 
62 | < 100 µM | CC1(c2cccc(NC(=O)c3cccc(Cl)c3F)c2)CCSC(N)=N1 (centres unmarked) [Compound 932] | 
63 | < 100 µM | CCOc1cc(Cl)cnc1C(=O)Nc1cccc(C2(C)CCSC(N)=N2)c1 (centres unmarked) [Compound 532] | 
64 | < 100 µM | CC1(c2cccc(NC(=O)CCNC(=O)c3ccc(C(F)(F)F)cn3)c2)CCSC(N)=N1 (centres unmarked) [Compound 1020] | 
65 | < 100 µM | CC1(c2cccc(NC(=O)Nc3ccc(Br)cc3)c2)CCSC(N)=N1 (centres unmarked) [Compound 887] | 
66 | < 100 µM | CC1(c2cccc(NC(=O)c3ccc(-c4ccccn4)s3)c2)CCSC(N)=N1 (centres unmarked) [Compound 1096] | 
67 | < 100 µM | CC1(c2cccc(NC(=O)c3cc(Cl)cc(Cl)c3)c2)CCSC(N)=N1 (centres unmarked) [Compound 775] | 
68 | < 100 µM | CC1(c2cccc(OCC(=O)Nc3ccc(C(F)(F)F)cc3)c2)CCSC(N)=N1 (centres unmarked) [Compound 105] | 
69 | < 100 µM | CC1(c2cccc(OCC(=O)Nc3ccc(C(=O)c4ccccc4)cc3)c2)CCSC(N)=N1 (centres unmarked) [Compound 591] | 
70 | < 100 µM | CC1(c2cccc(OCC(=O)Nc3nc4ccccc4s3)c2)CCSC(N)=N1 (centres unmarked) [Compound 922] | 
71 | < 100 µM | CC1(c2cc(NC(=O)c3ccc(Cl)cc3Cl)ccc2F)CCSC(N)=N1 (centres unmarked) [Compound 544] | 
72 | < 100 µM | CC1(c2cccc(C(=O)Nc3nncs3)c2)CCSC(N)=N1 (centres unmarked) [Compound 671] | 
73 | < 100 µM | CC1(c2ccc(F)c(NC(=O)c3ccccc3C(F)(F)F)c2)CCSC(N)=N1 (centres unmarked) [Compound 345] | 
74 | < 100 µM | CC1(c2cccc(NC(=O)c3ccc(F)c(O)c3)c2)CCSC(N)=N1 (centres unmarked) [Compound 469] | 
75 |  | C[C@@H](NC(=O)c1ccc(C2(C)CCSC(N)=N2)s1)c1ccccc1 (some centres unmarked) [Compound 52] | 10 µM
76 | < 100 µM | CC1(c2cc(NC(=O)c3ccc(F)cc3)cc(S(C)(=O)=O)c2)CCSC(N)=N1 (centres unmarked) [Compound 330] | 
77 | < 100 µM | CCCCNC(=O)c1ccc(C2(C)CCSC(N)=N2)s1 (centres unmarked) [Compound 803] | 
78 | < 100 µM | COc1cnc(C(=O)Nc2cccc(C3(C)CCSC(N)=N3)c2)c(OC)n1 (centres unmarked) [Compound 984] | 
79 | < 100 µM | COc1ccc(NC(=O)COc2cccc(C3(C)CCSC(N)=N3)c2)cc1 (centres unmarked) [Compound 67] | 
80 | < 100 µM | CC1(c2cccc(NC(=O)C(=O)Nc3ccc(Cl)cn3)c2)CCSC(N)=N1 (centres unmarked) [Compound 866] | 
